Consider five molecules from US20060148838A1, “Novel pyrrolodihydroisoquinolines useful in the treatment of cancer” (Altana Pharma AG, priority 2003, published 2006).

Broadly, the IC50 is the concentration needed to halve the response being measured. The term melting point denotes the temperature of the solid-liquid transition.

The structures appear in SMILES notation.

In data set [1] the test system is NCl-H460 non-small cell lung cancer cells. As to the kind of experiment: Alamar Blue cell viability assay, anti-proliferative/cytotoxic activity. The note with it: 72 hours incubation, one range stated for all listed Examples, read-out: −log IC50 NCl-H460 (converted). The class given is cell-based. Here is the method: The anti-proliferative/cytotoxic activity of the compounds described herein, can be tested on NCl-H460 non-small cell lung cancer cells using the Alamar Blue cell viability assay (described in O'Brien et al. Eur J Biochem 267, 5421-5426, 2000). The compounds are dissolved as 20 mM solutions in dimethylsulfoxide (DMSO) and subsequently diluted in semi-logarithmic steps. DMSO dilutions are further diluted 1:100 into Dulbecco's modified Eagle's medium (DMEM) containing 10% fetal calf serum to a final concentration twice as much as the final concentration in the test. NCl-460 cells are seeded into 96 well flat bottom plates at a density of 4000 cells per well in a volume of 50 μl per well. 24 hours after seeding the 50 μl each of the compound dilutions in DMEM medium are added into each well of the 96 Well plate. Each compound dilution is tested as quadruplicates. Wells containing untreated control cells are filled with 50 μl DMEM medium containing 1% DMSO. The cells are then incubated with the substances for 72 hours at 37° C. In a humified atmosphere containing 5% carbon dioxide. To determine the viability of the cells, 10 μl of an Alamar Blue solution (Biosource) are added and the fluorescence is measured at an extinction of 544 nm and an emission of 590 nm. For the calculation of cell viability the emission value from untreated cells is set to 100% viability and the emission rates of treated cells are set in relation to the values of untreated cells. Viabilities are expressed as % values.
The corresponding IC50 values of the compounds for anti-proliferative/cytotoxic activity are determined from the concentration-effect curves.
Representative advantageous IC50 values for anti-proliferation/cytotoxicity determined for the compounds mentioned and numbered as Examples in the examples above follow from the following table A, in which the numbers of the compound correspond to the numbers of the examples.

Regarding `CCOC(=O)c1c(-c2cc(C)c(O)c(C)c2)c(C)n2c1-c1cc([N+](=O)[O-])c(OC)cc1CC2` [Example 22, 2-(4-Hydroxy-3,5-dimethyl-phenyl)-8-methoxy-3-methyl-9-nitro-5,6-dihydro-pyrrolo[2,1-a]isoquinoline-1-carboxylic acid ethyl ester], the melting point is 209 to 211 °C. Further, in data set [1], the IC50 is 0.398 to 3.16 µM.
For `CCOC(=O)c1c(-c2cc(C)c(O)c(C)c2)c(C)n2c1-c1cc(N)c(OC)cc1CC2` [Example 25, 9-Amino-2-(4-hydroxy-3,5-dimethyl-phenyl)-8-methoxy-3-methyl-5,6-dihydro-pyrrolo[2,1-a]isoquinoline-1-carboxylic acid ethyl ester] the same measures were 104 to 106 °C and 0.398 to 3.16 µM.
The corresponding values for `COc1cc2c(cc1OC)-c1c(C(=O)NC3CCCCC3)c(-c3cc(C)c(O)c(C)c3)c(C)n1CC2` [Example 28, 2-(4-Hydroxy-3,5-dimethyl-phenyl)-8,9-dimethoxy-3-methyl-5,6-dihydro-pyrrolo[2,1-a]isoquinoline-1-carboxylic acid cyclohexyl amide] are 273 to 276 °C and 0.398 to 3.16 µM.
The corresponding values for `COc1cc2c(cc1OC)-c1c(C(=O)Nc3ccccc3)c(-c3cc(C)c(O)c(C)c3)c(C)n1CC2` [Example 34, 2-(4-Hydroxy-3,5-dimethyl-phenyl)-8,9-dimethoxy-3-methyl-5,6-dihydro-pyrrolo[2,1-a]isoquinoline-1-carboxylic acid phenylamide] are 271 to 273 °C and 0.398 to 3.16 µM.
On to `CCC(C)NC(=O)c1c(-c2cc(C)c(O)c(C)c2)c(C)n2c1-c1cc(OC)c(OC)cc1CC2` (stereo not shown) [Example 36, 2-(4-Hydroxy-3,5-dimethyl-phenyl)-8,9-dimethoxy-3-methyl-5,6-dihydro-pyrrolo[2,1-a]isoquinoline-1-carboxylic acid sec-butylamide], for which the melting point was in the range of 238 to 240 °C. In data set [1], the IC50 was 0.398 to 3.16 µM.
